Experimental data reported in patent publication US20260014147A1, “STAT6 DEGRADERS” (Gilead Sciences, Inc., priority 2024, published 2026).

biological target: T1, STAT6 (endogenous, HiBiT-tagged) in HeLa LgBiT clone 4.14 cells (Homo sapiens, UniProt P42226); assay: STAT6 Degrader Assay (HiBiT based, HeLa LgBiT clone 4.14 cells, luminescence, DC50); assay type: cell-based; details: DC50 provided for test compounds with >80% Emax, geometric mean, read-out: STAT6 degradation DC50
T1 construct: These cells express endogenous STAT6; host or cells: HeLa LgBiT clone 4.14
T1 sequence (P42226 1-847): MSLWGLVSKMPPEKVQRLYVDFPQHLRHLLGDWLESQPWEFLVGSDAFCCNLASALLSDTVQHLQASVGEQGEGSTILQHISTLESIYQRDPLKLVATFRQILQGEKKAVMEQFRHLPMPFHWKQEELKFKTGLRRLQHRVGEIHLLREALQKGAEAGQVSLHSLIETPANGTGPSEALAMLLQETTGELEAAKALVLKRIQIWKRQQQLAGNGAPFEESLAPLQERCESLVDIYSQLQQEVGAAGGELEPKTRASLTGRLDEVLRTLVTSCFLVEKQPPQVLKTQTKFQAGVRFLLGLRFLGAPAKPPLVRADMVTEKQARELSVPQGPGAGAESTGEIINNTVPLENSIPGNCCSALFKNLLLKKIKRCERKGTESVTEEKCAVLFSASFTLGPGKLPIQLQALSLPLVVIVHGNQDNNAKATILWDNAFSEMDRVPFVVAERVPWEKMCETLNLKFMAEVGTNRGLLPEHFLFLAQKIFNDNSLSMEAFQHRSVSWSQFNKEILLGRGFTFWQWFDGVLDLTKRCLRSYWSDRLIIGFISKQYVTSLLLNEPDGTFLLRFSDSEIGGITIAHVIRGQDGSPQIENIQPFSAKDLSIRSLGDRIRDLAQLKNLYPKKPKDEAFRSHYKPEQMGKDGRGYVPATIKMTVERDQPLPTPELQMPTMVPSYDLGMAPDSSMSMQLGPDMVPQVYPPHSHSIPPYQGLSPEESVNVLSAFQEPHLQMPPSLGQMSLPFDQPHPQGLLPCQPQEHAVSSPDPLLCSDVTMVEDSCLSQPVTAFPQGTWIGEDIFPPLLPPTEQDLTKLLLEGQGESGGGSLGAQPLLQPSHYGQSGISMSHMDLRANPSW
Method in brief: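 Remaining STAT6 is read as NanoBiT luminescence after 0.5 h with Nano-Glo, in HeLa LgBiT clone 4.14 cells expressing endogenous HiBiT-tagged STAT6, following 4-24 h compound incubation at 37 °C. Full degradation is set by 50 µM terfenadine, which kills the cells; degradation plotted against log compound concentration.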

SMILES | DC50
Cn1c(CN2CCC(c3ccc(C(=O)N4CCC(CN5CCC(N6CCN(c7ccc(NC8CCC(=O)NC8=O)cc7F)CC6)C(F)(F)C5)CC4)cc3)CC2)cc2c(-c3ccc(N)nc3)ccnc21 (centres unmarked) [Example 2p2, 3-((4-(4-(1-((1-(4-(1-((4-(6-aminopyridin-3-yl)-1-methyl-1H-pyrrolo[2,3-b]pyridin-2-yl)-methyl)piperidin-4-yl)benzoyl)piperidin-4-yl)methyl)-3,3-difluoropiperidin-4-yl)piperazin-1-yl)-3-fluorophenyl)amino)piperidine-2,6-dione] | 61 nM
COc1cc(C2CCN(Cc3cc4n(n3)CCN(C(=O)c3ccc(C5CCN([C@@H](C)c6cc7c(-c8ccc(N)nc8)ccnc7n6C)CC5)cc3)C4)CC2)ccc1NC1CCC(=O)NC1=O (stereo partly drawn) [Example 2c44, 3-((4-(1-((5-(4-(1-((S)-1-(4-(6-aminopyridin-3-yl)-1-methyl-1H-pyrrolo[2,3-b]pyridin-2-yl)ethyl)piperidin-4-yl)benzoyl)-4,5,6,7-tetrahydropyrazolo[1,5-a]pyrazin-2-yl)methyl)piperidin-4-yl)-2-methoxyphenyl)amino)piperidine-2,6-dione] | 0.7 nM
C[C@@H](c1cc2c(-c3ccc4[nH]ncc4c3)ccnc2n1C)N1CCC(c2ccc(C(=O)N3CCC(CN4CCN(c5ccc(NC6CCC(=O)NC6=O)cc5F)CC4)CC3)cc2)CC1 (stereo partly drawn) [Example 2c17, 3-((4-(4-((1-(4-(1-((S)-1-(4-(1H-indazol-5-yl)-1-methyl-1H-pyrrolo[2,3-b]pyridin-2-yl)-ethyl)piperidin-4-yl)benzoyl)piperidin-4-yl)methyl)piperazin-1-yl)-3-fluorophenyl)amino)piperidine-2,6-dione] | 2.7 nM
Cn1c(CN2CCC(c3ccc(C(=O)N4CCC(CN5CCN(c6ccc(NC7CCC(=O)NC7=O)cn6)CC5)CC4)cc3)CC2)cc2c(-c3ccc4[nH]ncc4c3)ccnc21 (centres unmarked) [Example 2n1, 3-((6-(4-((1-(4-(1-((4-(1H-indazol-5-yl)-1-methyl-1H-pyrrolo[2,3-b]pyridin-2-yl)methyl)piperidin-4-yl)benzoyl)piperidin-4-yl)methyl)piperazin-1-yl)pyridin-3-yl)amino)piperidine-2,6-dione] | 15.2 nM
C[C@@H]1CN(c2ccc(NC3CCC(=O)NC3=O)cc2F)CCN1CC1CCN(C(=O)c2ccc(C3CCN(Cc4cc5c(-c6ccc7[nH]ncc7c6)ccnc5n4C)CC3)cc2)CC1 (stereo partly drawn) [Example 2f8, 3-((4-((R)-4-((1-(4-(1-((4-(1H-indazol-5-yl)-1-methyl-1H-pyrrolo[2,3-b]pyridin-2-yl)methyl)-piperidin-4-yl)benzoyl)piperidin-4-yl)methyl)-3-methylpiperazin-1-yl)-3-fluorophenyl)amino)piperidine-2,6-dione] | 19.1 nM
CNc1ccc(-c2ccnc3c2cc([C@H](C)N2CCC(c4ccc(C(=O)N5CCn6nc(CN7CCC(c8ccc(N[C@H]9CCC(=O)NC9=O)cc8F)CC7)cc6C5)cc4)CC2)n3C)cn1 (single isomer, unassigned) [Example 2c42] | 5.4 nM

same assay, conditions: Emax provided for test compounds with <80% Emax (and 2c15), geometric mean, read-out: STAT6 degradation Emax

SMILES | Emax
CN(C(=O)c1ccc(C2CCN(Cc3cc4c(-c5ccc(N)nc5)ccnc4n3C)CC2)cc1)c1ccc(CC2CCN(c3ccc(NC4CCC(=O)NC4=O)cc3)CC2)cc1 (centres unmarked) [Example 2o1, 4-(1-((4-(6-aminopyridin-3-yl)-1-methyl-1H-pyrrolo[2,3-b]pyridin-2-yl)-methyl)piperidin-4-yl)-N-(4-((1-(4-((2,6-dioxopiperidin-3-yl)amino)phenyl)piperidin-4-yl)methyl)phenyl)-N-methylbenzamide] | 50 to 60%
Cn1c(CN2CC=C(c3ccc(C(=O)N4CCn5nc(CN6CCC(c7ccc(NC8CCC(=O)NC8=O)cc7F)CC6)cc5C4)cn3)CC2)cc2c(-c3ccc(N)nn3)ccnc21 (centres unmarked) [Example 2c38, 3-((4-(1-((5-(1′-((4-(6-aminopyridazin-3-yl)-1-methyl-1H-pyrrolo[2,3-b]pyridin-2-yl)methyl)-1′, 2′, 3′, 6′-tetrahydro-[2,4′-bipyridine]-5-carbonyl)-4,5,6,7-tetrahydropyrazolo[1,5-a]pyrazin-2-yl)methyl)piperidin-4-yl)-3-fluorophenyl)amino)piperidine-2,6-dione] | < 20%
